Target: T1, ligand-binding domain of the human VDR linked to the DNA-binding domain of the yeast transcription factor GAL4 (Homo sapiens, UniProt P11473)
T1 construct: expressed in transfected cells; host or cells: HEK293
T1 sequence (P11473 127-423 limits assumed): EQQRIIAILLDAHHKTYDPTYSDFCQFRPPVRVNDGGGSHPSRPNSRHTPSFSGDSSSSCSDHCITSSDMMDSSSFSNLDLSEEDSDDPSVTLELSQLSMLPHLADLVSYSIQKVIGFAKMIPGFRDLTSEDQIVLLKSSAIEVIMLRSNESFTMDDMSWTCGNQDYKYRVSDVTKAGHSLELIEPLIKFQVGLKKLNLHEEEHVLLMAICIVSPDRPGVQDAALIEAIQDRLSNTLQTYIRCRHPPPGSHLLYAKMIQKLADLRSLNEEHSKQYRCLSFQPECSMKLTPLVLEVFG
Assay: Human vitamin D receptor (VDR) agonist activity, cell based GAL4 hybrid luciferase transactivation assay
Conditions: HEK293 cells transiently transfected with VDR-LBD/GAL4 hybrid receptor and pFR-Luc reporter; 16 h incubation; luciferase luminescence; read-out: Effective concentrations of half maximal activation (EC50)
From the text: By way of example, the human vitamin D receptor (VDR) agonist activity of the claimed compounds can be tested using a cell based transactivation assay in an eukaryotic cell line. After a co-transfection, using a reporter plasmid construct and a hybrid receptor construct containing the ligand-binding domain of the human VDR linked to the DNA-binding domain of the yeast transcription factor GAL4, the cultured cells were stimulated by the VDR agonists. The hybrid VDR-GAL4 receptor binds the VDR agonists and transactivates luciferase reporter expression through the GAL4-response elements in the promoter of the luciferase gene (reporter construct). The VDR agonist binding and transactivation is determined by measuring the luciferase luminescence activity. The effective concentration of half maximal activation (EC50) was determined for the VDR agonists by means of dose-response experiments. The details of the protocol method of this test according to the invention are described in the example section.
Testing of the Human Vitamin D Receptor (VDR) Agonist Activity of the Compounds
The transient transfections were performed in HEK293 cells (ATCC, Molsheim, France) grown in minimum essential medium (Eagle) with Earle's balanced salt solution without L-glutamine and supplemented with 10% fetal bovine serum (Sigma-Aldrich Corp., St. Gallen, Switzerland), 2 mM glutamax (Life Technologies AG, Basel, Switzerland), 0.1 mM non-essential amino acids (Life Technologies), and 1 mM sodium pyruvate (Life Technologies) at 37° C. in 5% CO2. […] The cells were transiently transfected before stimulation the next day at >80% confluence by polyethylene-imine-based transfection. Compound stocks were prepared in DMSO, pre-diluted in PBS (0.45% final DMSO concentration), and added in the respective dilution 5 h after the addition of the transfection mixture onto the cells. The cells were again incubated for additional 16 h before firefly and renilla luciferases activity was measured sequentially in the same cell extract using buffers according to established protocols (Promega AG, Dübendorf, Switzerland). Transfection efficiency was controlled to the pRL-TK renilla luciferase reporter expression.

EC50	Structure (SMILES)
49 nM	CC/C(=C\C=C\C(O)(CC)CC)c1cccc(CCc2ccc3c(c2)C(O)CC3O)c1 (stereo not shown) [I-c, 5-(3-((3E,5E)-7-ethyl-7-hydroxynona-3,5-dien-3-yl)phenethyl)-2,3-dihydro-M-indene-1,3-diol]
34 nM	CC/C(=C\C=C\C(O)(CC)CC)c1cccc(CCc2ccc3c(c2)C(O)C(C)C3O)c1 (stereo not shown) [I-b, 5-(3-((3E,5E)-7-ethyl-7-hydroxynona-3,5-dien-3-yl)phenethyl)-2-methyl-2,3-dihydro-1H-indene-1,3-diol]
14 nM	CC/C(=C\C=C\C(O)(CC)CC)c1cccc(CCc2ccc3c(c2)C(O)C(C)(C)C3O)c1 (stereo not shown) [I-a, (5-(3-((3E,5E)-7-ethyl-7-hydroxynona-3,5-dien-3-yl)phenethyl)-2,2-dimethyl-2,3-dihydro-1H-indene-1,3-diol)]
210 nM	CCCC1C(O)c2ccc(CCc3cccc(/C(=C/C=C/C(O)(CC)CC)CC)c3)cc2C1O (stereo not shown) [Comp1, reference compound]
